# Assay results from patent US20250242064A1, “CXCR4-TARGETING COMPOUNDS, AND METHODS OF MAKING AND USING THE SAME” (PROVINCIAL HEALTH SERVICES AUTHORITY, priority 2022, published 2025).
# Where a SMILES comes first, the peptide text is derived from it. Bridges are numbered along the chain shown (N, C = ends). [ ]: non-standard residue; d: D form. The star is where a group is joined. X1 = O=C(O)CN1CCN(CC(=O)O)CCN(CC(=O)N[C@@H](CS(=O)(=O)O)C(=O)N[C@@H](CCCCNC(=O)CCCc2ccc(I)cc2)C(=O)*)CCN(CC(=O)O)CC1; 2Nal = N[C@@H](Cc1ccc2ccccc2c1)C(=O)O; Lys(iPr) = CC(C)NCCCC[C@H](N)C(=O)O
# Assay: in vivo
# Parameters: species or system mice
# Details: male, mouse, iv, total radioactivity
# Summary of the method: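 Male NRG mice bearing subcutaneous Z138 mantle cell lymphoma xenografts (5×10^6 cells, grown to 200-300 mm^3) injected intravenously under isoflurane with 68Ga-labelled tracers. Harvested tissues weighed and gamma-counted; uptake expressed as % ID/g.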
# [1] = NOD.Cg-Rag1tm1Mom Il2rgtm1Wjl/SzJ (NRG), Biodistribution: Adrenals
# [2] = NOD.Cg-Rag1tm1Mom Il2rgtm1Wjl/SzJ (NRG), Biodistribution: Bone
# [3] = NOD.Cg-Rag1tm1Mom Il2rgtm1Wjl/SzJ (NRG), Biodistribution: Brain
# [4] = NOD.Cg-Rag1tm1Mom Il2rgtm1Wjl/SzJ (NRG), Biodistribution: Heart
# [5] = NOD.Cg-Rag1tm1Mom Il2rgtm1Wjl/SzJ (NRG), Biodistribution: Kidneys
# [6] = NOD.Cg-Rag1tm1Mom Il2rgtm1Wjl/SzJ (NRG), Biodistribution: Liver
# [7] = NOD.Cg-Rag1tm1Mom Il2rgtm1Wjl/SzJ (NRG), Biodistribution: Lungs
# [8] = NOD.Cg-Rag1tm1Mom Il2rgtm1Wjl/SzJ (NRG), Biodistribution: Muscle
# [9] = NOD.Cg-Rag1tm1Mom Il2rgtm1Wjl/SzJ (NRG), Biodistribution: Pancreas
# [10] = NOD.Cg-Rag1tm1Mom Il2rgtm1Wjl/SzJ (NRG), Biodistribution: Small Intestine
# [11] = NOD.Cg-Rag1tm1Mom Il2rgtm1Wjl/SzJ (NRG), Biodistribution: Spleen
# [12] = NOD.Cg-Rag1tm1Mom Il2rgtm1Wjl/SzJ (NRG), Biodistribution: Z138 Tumor
# [13] = NOD.Cg-Rag1tm1Mom Il2rgtm1Wjl/SzJ (NRG), Ratio Tumor-to-Blood
# [14] = NOD.Cg-Rag1tm1Momll2rgtm1Wjl/SzJ (NRG), Biodistribution: Blood
# [15] = NOD.Cg-Rag1tm1Momll2rgtm1Wjl/SzJ (NRG), Biodistribution: Stomach
# [16] = NOD.Cg-Rag1tm1Momll2rgtm1Wjl/SzJ (NRG), Biodistribution: Testes
# [17] = NOD.Cg-Rag1tm1Momll2rgtm1Wjl/SzJ (NRG), Ratio Tumor-to-Bone
# [18] = NOD.Cg-Rag1tm1Momll2rgtm1Wjl/SzJ (NRG), Ratio Tumor-to-Kidney
# [19] = NOD.Cg-Rag1tm1Momll2rgtm1Wjl/SzJ (NRG), Ratio Tumor-to-Muscle
# [20] = NOD.Cg-Rag1tm1Momll2rgtm1Wjl/SzJ (NRG), Ratio Tumor-to-Pancreas
smiles,measurement,setting,value
"CC(C)NCCCC[C@H](NC(=O)[C@H]1CCC(=O)N[C@@H](CCCCNC(=O)[C@H](CCCCNC(=O)CCCc2ccc(I)cc2)NC(=O)[C@H](CS(=O)(=O)O)NC(=O)CN2CCN(CC(=O)O)CCN(CC(=O)O)CCN(CC(=O)O)CC2)C(=O)N[C@@H](Cc2ccc(O)cc2)C(=O)N[C@@H](CCCCNC(C)C)C(=O)N[C@H](CCCNC(=N)N)C(=O)N[C@@H](Cc2ccc3ccccc3c2)C(=O)N[C@H](C)C(=O)N1)C(N)=O [[^177Lu]Lu-BL34L11, metal not drawn] (K(X1)Y[Lys(iPr)][dR][2Nal][dA][dE][Lys(iPr)]-NH2; lactam N-7)",tissue uptake at 24 h,[1],2.44 %ID/g
same,tissue uptake at 72 h,[1],1.8 %ID/g
same,tissue uptake at 120 h,[1],1.62 %ID/g
same,tissue uptake at 24 h,[2],0.71 %ID/g
same,tissue uptake at 72 h,[2],0.42 %ID/g
same,tissue uptake at 120 h,[2],0.29 %ID/g
same,tissue uptake at 24 h,[3],0.18 %ID/g
same,tissue uptake at 72 h,[3],0.07 %ID/g
same,tissue uptake at 120 h,[3],0.05 %ID/g
same,tissue uptake at 24 h,[4],1.8 %ID/g
same,tissue uptake at 72 h,[4],1.1 %ID/g
same,tissue uptake at 120 h,[4],0.76 %ID/g
same,tissue uptake at 24 h,[5],2.67 %ID/g
same,tissue uptake at 72 h,[5],1.19 %ID/g
same,tissue uptake at 120 h,[5],0.75 %ID/g
same,tissue uptake at 24 h,[6],1.99 %ID/g
same,tissue uptake at 72 h,[6],1.1 %ID/g
same,tissue uptake at 120 h,[6],0.45 %ID/g
same,tissue uptake at 24 h,[7],4.88 %ID/g
same,tissue uptake at 72 h,[7],2.86 %ID/g
same,tissue uptake at 120 h,[7],1.91 %ID/g
same,tissue uptake at 24 h,[8],0.76 %ID/g
same,tissue uptake at 72 h,[8],0.38 %ID/g
same,tissue uptake at 120 h,[8],0.21 %ID/g
same,tissue uptake at 24 h,[9],1.05 %ID/g
same,tissue uptake at 72 h,[9],0.45 %ID/g
same,tissue uptake at 120 h,[9],0.53 %ID/g
same,tissue uptake at 24 h,[10],0.79 %ID/g
same,tissue uptake at 72 h,[10],0.38 %ID/g
same,tissue uptake at 120 h,[10],0.21 %ID/g
same,tissue uptake at 24 h,[11],2.13 %ID/g
same,tissue uptake at 72 h,[11],1.96 %ID/g
same,tissue uptake at 120 h,[11],1.86 %ID/g
same,tissue uptake at 24 h,[12],26.6 %ID/g
same,tissue uptake at 72 h,[12],35 %ID/g
same,tissue uptake at 120 h,[12],41.2 %ID/g
same,tissue to tissue ratio at 24 h,[13],3.42
same,tissue to tissue ratio at 72 h,[13],12.3
same,tissue to tissue ratio at 120 h,[13],25
same,tissue to tissue ratio at 72 h,"NOD.Cg-Rag1tm1Mom Il2rgtm1Wjl/SzJ (NRG), Ratio Tumor-to-Muscle",91.8
same,tissue uptake at 24 h,[14],7.82 %ID/g
same,tissue uptake at 72 h,[14],2.84 %ID/g
same,tissue uptake at 120 h,[14],1.6 %ID/g
same,tissue uptake at 24 h,[15],0.75 %ID/g
same,tissue uptake at 72 h,[15],0.32 %ID/g
same,tissue uptake at 120 h,[15],0.24 %ID/g
same,tissue uptake at 24 h,[16],2.64 %ID/g
same,tissue uptake at 72 h,[16],1.47 %ID/g
same,tissue uptake at 120 h,[16],2.04 %ID/g
same,tissue to tissue ratio at 24 h,[17],28.3
same,tissue to tissue ratio at 72 h,[17],53.7
same,tissue to tissue ratio at 120 h,[17],55.9
same,tissue to tissue ratio at 24 h,[18],10.1
same,tissue to tissue ratio at 72 h,[18],29.3
same,tissue to tissue ratio at 120 h,[18],54.2
same,tissue to tissue ratio at 24 h,[19],35.8
same,tissue to tissue ratio at 120 h,[19],190
same,tissue to tissue ratio at 24 h,[20],25.9
same,tissue to tissue ratio at 72 h,[20],71.7
same,tissue to tissue ratio at 120 h,[20],122
